Test results from patent US20080081835A1, “Use of Ltb4 Inhibitors for the Treatment of B-Cell Leukemias and Lymphomas” (priority 2004, published 2008).

Legend:
[1] = system: B-CLL cells; assay: DNA synthesis (3H-thymidine incorporation) in B-CLL cells activated by CD40L-L cells, 96 hr co-culture; format: cell-based, human
Protocol: FIG. 3 depicts the effects of leukotriene biosynthesis inhibitors on CD40L-induced thymidine incorporation in B-CLL cells. B-CLL cells (2×10^5) were co-cultured with either irradiated L cells alone (L), irradiated CD40L-L cells or irradiated CD40L-L cells plus indicated inhibitor for 96 hr. When inhibitors were used, B-CLL cells were pre-treated with the inhibitor for 30 min prior co-culturing with L cells or CD40L-L cells. The inhibitors used were: […]. The control result reported in the Figure represents B-CLL cells co-cultured with irradiated CD40L-L cells alone. ^3H-thymidine (1 μCi) was present for the final eight hours. Activation of B-CLL cells with CD40L-L treatment led to between 3580 and 15369 cpm (^3H-thymidine) incorporation (control) in different experiments. This was set as 100% in each experiment. […] Student's t-test was used to calculate statistics i.e. control vs. control plus indicated compound(s) (** P<0.01, *** P<0.001). B-cells were isolated from patients suffering with B-CLL or B-prolymphocytic leukemia (B-PLL) who had not received chemotherapy within during the previous six weeks (see Table 1 below). Peripheral blood samples were obtained after informed consent and with local ethics committee approval. Blood samples were Ficoll-Isopaque purified and washed twice in phosphate buffered saline (PBS). After that, cells were either frozen in PBS with 50% human AB serum and 10% dimethylsulfoxide or analyzed fresh. Frozen cell samples were thawed and washed in ice cold fetal calf serum and subsequently in PBS before analysis. Cells from two patients were used twice, both freshly isolated cells and after freezing with similar results. […]. The purity of the isolated cells was estimated by flow cytometric analysis (with FACS Calibur, Becton Dickinson, Mountain View, Calif.). Morphological analysis was performed after staining with May-Grunewald/Giemsa solution. The purity of B-CLL and B-PLL cells was >98%. Purified B-CLL cells were cultured in RPMI 1640 medium, supplemented with 10% FCS, 2 mM L-glutamine, 100 U/mL penicillin and 100 μg/mL streptomycin and incubated at […] in an atmosphere of 5% CO2. 2×10^5 of B-CLL cells were seeded in 200 μL medium in 96-well plates. B-CLL cells were pretreated with MK-886 (a specific FLAP inhibitor) (10^−6 to 10^−9 M) or BWA4C (a specific 5-LO inhibitor) (10^−7 to 10^−9 M) for 30 min, before co-culturing with irradiated (15,000 Rad) CD40L expressing L (CD40L-L) cells or control L (L) cells in the presence of inhibitors. LTB4 (10^−7 M) was present in the indicated cultures. Each sample was represented by triplicates. 1 μCi ^3H-thymidine was present in the wells for the final eight […] of the 96 hr cultures. The cells were harvested onto glass fibre filter and radioactivity was measured in a liquid scintillation counter.

[2] = system: B-CLL cells; assay: Flow cytometry (FACS) analysis of CD23, CD54 and CD150 expression in CD40L activated B-CLL cells; format: cell-based, human; conditions: for effect on CD40-induced increased expression of CD23, CD54 and CD150: 100 nM, 96 hrs
Protocol: FIG. 4 depicts the effects of leukotriene biosynthesis inhibitors on the expression of CD23, CD54 and CD150 in CD40L activated B-CLL. Purified B-CLL cells were co-cultured with either L cells or CD40L-L cells in the absence or presence of MK886 (10^−7 M), BWA4C (10^−7 M), and/or LTB4 (10^−7 M) for 96 hrs. When inhibitors were used, B-CLL cells were pre-treated with the inhibitor for 30 min prior to co-culturing with L cells or CD40L-L cells. B-CLL cells were collected and analysed by FACS with antibodies against CD23, CD54 or CD150. The figure depicts one typical experiment out of six. […] Cultured (described above) B-CLL cells were collected (without the plastic attached L cells) and used for FACS detection. Surface marker expression was detected by indirect immunofluorescence. One million cells/sample were washed in cold PBS containing 1% FCS and 0.1% sodium azide and then exposed to the relevant antibodies. The cells were washed and incubated with the RPE conjugated secondary antibody. All incubations were done at 4° C. Samples were run on a Becton Dickinson FACScan flow cytometer (Becton Dickinson, Mountain View, Calif.). The CellQuest software (Becton Dickinson) was used both for acquisition and analysis of the samples. Ten thousand events were collected on a FACScan flow cytometer, and the results were analysed using CellQuest (Becton Dickinson) software. Only the viable cells were considered for analysis based on their light scatter (FSC/SSC) characteristics. The following antibodies were used: MAb MHM-6 (anti-CD23, from Dr. M. Rowe, University of Wales, Cardiff, Wales, UK), MAb LB-2 (anti-CD54, from E. A. Clark, University of Washington, Seattle, Wash.), MAb IPO-3 (anti-SLAM, kind gift from S. Sidorenko, Acad. of Science of Ukraine, Kiev, Ukraine) and RPE conjugated rabbit anti-mouse Ig F(ab′)2 (Dako, Copenhagen, Denmark) were used as secondary antibody.

[3] = system: B-CLL cells; assay: Biosynthesis of LTB4 by intact B-CLL cells (HPLC analysis); format: cell-based, human; conditions: intact cells preincubated with diamide (100 μM, two minutes), then A23187 (1 μM) and arachidonic acid (40 μM); mean of six experiments; without diamide 2.6±0.8
Protocol: pre-incubated (intact cells) with diamide (100 μM) for two minutes, followed by stimulation with A23187 (1 μM) and arachidonic acid (40 μM).
10×10^6 cells were suspended in 1 mL PBS and pre-incubated for two minutes with/without azodicarboxylic acid bis(dimethylamide), abbreviated diamide, (100 μM) prior to stimulation with arachidonic acid (40 μM) and/or calcium ionophore A23187 (1 μM). The cells were stimulated for five minutes at 37° C. and the incubations were terminated with 1 mL methanol.
After addition of 0.5 ml PBS and the internal standard PGB1 (100 pmol) to the samples, the cells were centrifuged (2500 rpm, 5 min). The supernatant was subsequently subjected to solid phase extraction on Chromabond C18 columns (200 mg, Macherey & Nagel). The methanol eluate was analysed on Waters Alliance 2695 reverse phase HPLC and detected with Waters PDA 996. Methanol:water:trifiuoroacetic acid (70:30:0.007, v/v) was used as mobile phase at a flow rate of 1.2 mL/min. Qualitative analysis was performed by comparison of retention times of synthetic standards and quantitative determinations were performed by computerized integration of the area of eluted peaks.

[4] = system: human lung cancer cells; conditions: cited from earlier work
[5] = system: serum proteins; conditions: Can. J. Physiol. Pharmacol. 67, 456 (1989); cited from earlier work
[6] = system: malignant cells from patients with acute or chronic myelogenous leukemia; conditions: cited from earlier work

## CCCCC/C=C\C[C@@H](O)/C=C/C=C/C=C\[C@@H](O)CCCC(=O)O [LTB4]
[1]; exogenous addition, 150 nM
  reversal of the inhibitory action of 100 nM BWA4C on thymidine incorporation: almost completely reversed
[1]; exogenously added, 150 nM
  reversal of the inhibitory effect of MK-886 on thymidine incorporation: almost completely reversed
[1]; final concentration 150 nM, no inhibitor
  effect on CD40-induced thymidine incorporation, alone: did not amplify
[2]; 150 nM
  reversal of the inhibitory effect of the inhibitors (MK-886, BWA4C) on antigen expression: almost completely reversed
[2]; without inhibitor
  effect alone on the expression of CD23, CD54 and CD150: did not cause any significant effect

## CN(C)C(=O)/N=N/C(=O)N(C)C [diamide, Azodicarboxylic acid bis(dimethylamide)]
[3]
  production of LTB4: 33.5±1.2 pmol/10^6 cells

## CC(C)c1ccc2c(c1)c(SC(C)(C)C)c(CC(C)(C)C(=O)O)n2Cc1ccc(Cl)cc1 [MK-886]
[1]; 100 nM
  effect on DNA synthesis induced by CD40-ligand stimulation: markedly inhibited DNA synthesis
[1]; Homo sapiens, 100 nM inhibitor, CD40L-L stimulated B-CLL cells, 96 hr, read-out: inhibitory action on thymidine incorporation
  inhibition at 0.1 µM: 38%
[1]; Homo sapiens, 1 μM inhibitor, CD40L-L stimulated B-CLL cells, 96 hr, read-out: inhibitory action on thymidine incorporation
  inhibition at 1 µM: 46%
[2]
  effect on CD40-induced increased expression of CD23, CD54 and CD150: markedly counteracted
[4]
  antiproliferative effects: antiproliferative effects
[5]
  binding to serum proteins: relatively high binding
[6]
  antiproliferative effects: antiproliferative effects

## CC(=O)N(O)C/C=C/c1cccc(Oc2ccccc2)c1 [BWA4C]
[1]; 10 nM
  effect on thymidine incorporation: significant inhibitory effect
[1]; FIG. 3B
  potency to block DNA synthesis compared with MK-886: even more potent inhibitor than MK-886
[2]
  effect on CD40-induced increased expression of CD23, CD54 and CD150: markedly counteracted
